# Columns and labels:
# [1] = system: Huh-7.5 (hepatic cell line showing subgenomic and genomic hepatitis C virus RNA replication); assay: Cytotoxicity of NK cells to virus-transformed cell lines (Huh-7.5); conditions: NK cells treated with ponatinib 150 nM for 16 hours, co-cultured 48 hours
# [2] = system: AGS (the stomach cancer cell line)
# [3] = system: SNU-245 (the biliary tract cancer cell line); assay: 2 day cytotoxicity assay against SNU-245 cells (pretreated or formulated NK cells, or ponatinib alone)
# human NK cells [4] = conditions: FIG. 9; NK cells treated with ponatinib 50 or 150 nM 24 hrs, tail vein, one day after injection; vs non-treated NK cells
# [5] = system: MIA PaCa-2 (pancreatic cancer) cells; assay: Cytotoxicity of NK cells to solid tumor cells (MIA PaCa-2); assay type: cell-based; conditions: NK cells treated with 200 nM Ponatinib for 6 hrs, co-cultured 48 hrs
# [6] = system: MDA-MB-231 (the breast cancer cell line)
# [7] = system: THP-1 (acute monocyte leukemia) cells; assay: Cytotoxicity of NK cells to leukemia cells (THP-1); assay type: cell-based; conditions: NK cells treated with ponatinib 500 nM for 6 hrs, co-cultured 48 hours
# Source text: (§1) IL-2 is a well-known activator of effector cells such as NK cells.
# NK cells = assay: Annexin V/7-AAD analysis of NK cells co-cultured with K562 cells; assay type: cell-based; conditions: FIG. 11; ponatinib 150 nM 24 hrs, then K562 cells E:T 5:1 for 4 hrs; vs untreated cells
# Method: After incubation, NK cells were collected and analyzed for cell death by annexin-V and 7-AAD analysis.
# human NK cells [8] = assay: NK cell cycle analysis by propidium iodide staining and flow cytometry; conditions: FIG. 12; ponatinib 150 nM for 2 days; vs control NK cells
# [9] = system: SNU-245, the biliary tract cancer cell line; assay: 4 hr cytotoxic activity assay of pretreated NK cells against SNU-245; assay type: cell-based, human; conditions: FIG. 4; ponatinib 150 nM 24 hrs, washed; E:T 3:1, 1:1, 0.3:1 for 4 hrs
# Source text: (§2) NK cells (effector cells) were co-cultured with cancer cells (target cells; SNU-245 and AGS cells) at the effector-to-target (E:T) cell count ratio (3:1, 1:1, 0.3:1) for 4 hrs.
# [10] = system: HL-60 (acute promyelocytic leukemia) cells; assay: Cytotoxicity of NK cells to leukemia cells (HL-60); assay type: cell-based; conditions: NK cells treated with ponatinib 500 nM for 6 hrs, co-cultured 48 hours
# Source text: as §1
# [11] = system: MDA-MB-231 (breast cancer) cells; assay: Cytotoxicity of NK cells to solid tumor cells (MDA-MB-231); assay type: cell-based; conditions: NK cells treated with 50 nM Ponatinib for 6 hrs, co-cultured 48 hrs
# [12] = system: KG-1 (acute myelogenous leukemia) cells; assay: Cytotoxicity of NK cells to leukemia cells (KG-1); assay type: cell-based; conditions: NK cells treated with ponatinib 500 nM for 6 hrs, co-cultured 48 hours
# Source text: as §1
# [13] = system: AGS, the stomach cancer cell line; assay: 4 hr cytotoxic activity assay of pretreated NK cells against AGS; assay type: cell-based, human; conditions: FIG. 4; ponatinib 150 nM 24 hrs, washed; E:T 3:1, 1:1, 0.3:1 for 4 hrs
# Source text: as §2
# [14] = system: HepG2.2.15 (hepatic cell transformed with hepatitis B virus and producing HBV); assay: Cytotoxicity of NK cells to virus-transformed cell lines (HepG2.2.15); conditions: NK cells treated with ponatinib 150 nM for 16 hours, co-cultured 48 hours
# [15] = system: SNU-387 (the liver cancer cell line); assay: 2 day cytotoxicity assay of kinase inhibitor pretreated NK cells against SNU-387; conditions: FIG. 7B; pretreatment 24 hrs; E:T 0.5:1, 48 hrs
# [16] = FIG. 5, high concentrations of ponatinib, 24 hrs, E:T 0.5:1 for 2 days
# [17] = FIG. 8, ponatinib 150 nM 24 hrs, washed, E:T 0.5:1 for 2 days
# [18] = FIG. 8, ponatinib added to target cells without NK cells, 2 days
compound,measurement,setting,value
"Cc1ccc(C(=O)Nc2ccc(CN3CCN(C)CC3)c(C(F)(F)F)c2)cc1C#Cc1cnc2cccnn12 [Ponatinib, 3-(2-imidazo[1,2-b]pyridazin-3-ylethynyl)-4-methyl-N-[4-[(4-methylpiperazin-1-yl)methyl]-3-(trifluoromethyl)phenyl]benzamide]",Cytotoxicity of NK Cells to Hur-7.5 Cells,"[1]; E:T = 0.1:1, W/IL-2",76%
same,Cytotoxicity of NK Cells to Hur-7.5 Cells,"[1]; E:T = 0.1:1, W/O IL-2",48%
same,Cytotoxicity of NK Cells to Hur-7.5 Cells,"[1]; E:T = 0.5:1, W/IL-2",96%
same,Cytotoxicity of NK Cells to Hur-7.5 Cells,"[1]; E:T = 0.5:1, W/O IL-2",78%
same,cytotoxic activity of ponatinib-pretreated NK cells against AGS,[2]; [16],decreased
same,viability of AGS cancer cells co-cultured with NK cells pretreated with ponatinib,[2]; [17],significantly decreased
same,cytotoxic activity of ponatinib treatment alone against AGS,[2]; [18],did not show cytotoxic activity
same,anti-cancer cytotoxicity of kinase inhibitor pretreated NK cells against SNU-245 vs untreated NK cells,"[3]; FIG. 7A, pretreatment 24 hrs, E:T 0.5:1, 48 hrs",higher anti-cancer cytotoxicity
same,viability of SNU-245 cancer cells co-cultured with NK cells pretreated with ponatinib,[3]; [17],significantly decreased
same,cytotoxic activity of ponatinib treatment alone against SNU-245,[3]; [18],did not show cytotoxic activity
same,total human NK cells in blood of injected mice,human NK cells [4],more human NK cells
same,viability of human NK cells in blood of injected mice,human NK cells [4],higher viability
same,Cytotoxicity of NK Cells to MIA PaCa-2 Cells,"[5]; E:T = 0.1:1, With IL-2",66 ± 5%
same,Cytotoxicity of NK Cells to MIA PaCa-2 Cells,"[5]; E:T = 0.1:1, Without IL-2",43 ± 8%
same,Cytotoxicity of NK Cells to MIA PaCa-2 Cells,"[5]; E:T = 0.5:1, With IL-2",100 ± 0%
same,Cytotoxicity of NK Cells to MIA PaCa-2 Cells,"[5]; E:T = 0.5:1, Without IL-2",78 ± 2%
same,cytotoxic activity of ponatinib-pretreated NK cells against MDA-MB-231,[6]; [16],decreased
same,viability of MDA-MB-231 cancer cells co-cultured with NK cells pretreated with ponatinib,[6]; [17],significantly decreased
same,cytotoxic activity of ponatinib treatment alone against MDA-MB-231,[6]; [18],did not show cytotoxic activity
same,Cytotoxicity of NK Cells to THP-1 Cells,"[7]; E:T = 0.1:1, With IL-2",79 ± 4%
same,Cytotoxicity of NK Cells to THP-1 Cells,"[7]; E:T = 0.1:1, Without IL-2",20 ± 1%
same,Cytotoxicity of NK Cells to THP-1 Cells,"[7]; E:T = 1:1, With IL-2",99 ± 0%
same,Cytotoxicity of NK Cells to THP-1 Cells,"[7]; E:T = 1:1, Without IL-2",83 ± 1%
same,apoptotic NK cell population (Annexin V+/7-AAD− and Annexin V+/7-AAD+),NK cells,significantly reduced
same,necrotic NK cell population (Annexin V−/7-AAD+),NK cells,significantly reduced
same,fraction of G0/G1 phases of NK cells,human NK cells [8],concomitant decrease
same,fraction of S and G2/M phases of NK cells,human NK cells [8],increased
same,cytotoxic activity of pretreated NK cells against SNU-245,[9],strongly enhanced cytotoxicity
same,Cytotoxicity of NK Cells to HL-60 Cells,"[10]; E:T = 0.1:1, With IL-2",76 ± 9%
same,Cytotoxicity of NK Cells to HL-60 Cells,"[10]; E:T = 0.1:1, Without IL-2",13 ± 3%
same,Cytotoxicity of NK Cells to HL-60 Cells,"[10]; E:T = 1:1, With IL-2",98 ± 2%
same,Cytotoxicity of NK Cells to HL-60 Cells,"[10]; E:T = 1:1, Without IL-2",89 ± 4%
same,Cytotoxicity of NK Cells to MDA-MB-231 Cells,"[11]; E:T = 0.1:1, With IL-2",28 ± 5%
same,Cytotoxicity of NK Cells to MDA-MB-231 Cells,"[11]; E:T = 0.1:1, Without IL-2",34 ± 4%
same,Cytotoxicity of NK Cells to MDA-MB-231 Cells,"[11]; E:T = 0.5:1, With IL-2",59 ± 8%
same,Cytotoxicity of NK Cells to MDA-MB-231 Cells,"[11]; E:T = 0.5:1, Without IL-2",54 ± 8%
same,Cytotoxicity of NK Cells to KG-1 Cells,"[12]; E:T = 0.1:1, With IL-2",93 ± 1%
same,Cytotoxicity of NK Cells to KG-1 Cells,"[12]; E:T = 0.1:1, Without IL-2",81 ± 1%
same,Cytotoxicity of NK Cells to KG-1 Cells,"[12]; E:T = 1:1, With IL-2",99 ± 1%
same,Cytotoxicity of NK Cells to KG-1 Cells,"[12]; E:T = 1:1, Without IL-2",99 ± 1%
same,cytotoxic activity of pretreated NK cells against AGS,[13],strongly enhanced cytotoxicity
same,Cytotoxicity of NK Cells to HepG2.2.15 Cells,"[14]; E:T = 0.1:1, With IL-2",75%
same,Cytotoxicity of NK Cells to HepG2.2.15 Cells,"[14]; E:T = 0.1:1, Without IL-2",59%
same,Cytotoxicity of NK Cells to HepG2.2.15 Cells,"[14]; E:T = 0.5:1, With IL-2",88%
same,Cytotoxicity of NK Cells to HepG2.2.15 Cells,"[14]; E:T = 0.5:1, Without IL-2",74%
same,anti-cancer cytotoxicity of kinase inhibitor pretreated NK cells against SNU-387 vs untreated NK cells,[15],higher anti-cancer cytotoxicity

# From patent publication US11504396B2 (NKMAX Co., Ltd., priority 2016, dated 2022)
